What all share (assay type): cell-based
Assay [1] has as its system Fusobacterium nucleatum JCM 6328. Description: MIC by Agar Dilution Test, Fn-1. To be noted: read-out: Minimum inhibitory concentration (MIC). How it is done: (§1) Minimum inhibitory concentration (MIC) was determined by Agar Dilution Test (ADT).
(§2) Samples were dissolved in ethanol or water (according to solubility of each sample) to carry out two-fold serial dilution. A hundred μl of the resultant was added to a 10 ml sterilized agar medium (skin-related bacteria and standard bacteria in Mueller-Hinton Medium (Difco), yeast and filamentous bacteria in Sabroud Medium (Difco) and anaerobic bacteria in Trypticase Soy agar(BBL)), well agitated, transferred to a 9 cmf petri dish and immobilized at room temperature. To this petri dish, a 27-spot microplanter MIT-P from Sakuma Seisakusho, LTD. was used to spot 1×10^5 cfu (colony forming unit) of skin-related bacteria and standard bacteria, and the resultants were cultured at 37° C. for 18 hours. Yeast and filamentous bacteria were spotted for 5000 cfu (except Cg-1 was 50˜100 cfu) and cultured at 27° C. for 72 hours. Anaerobic bacteria were cultured at 37° C. for 72 hours under anaerobic conditions (using BBL gas pack anaerobic system). After completion of cultivation, growth of each bacterium was compared with that in a petri dish with alcohol alone (blank). A concentration of a sample without a bacterium growth was determined as the minimum inhibitory concentration (MIC).
(§3) As comparative substances, butylparaben (BPHB) and triclosan were determined as well.
A general note: In agar dilution, organisms are placed on agar that contains the substance at set levels.

The subject of assay [2] is Bacillus subtilis PCI 219 IFO 3134. The assay is described as follows: MIC by Agar Dilution Test, Bs-1. Particulars: read-out: Minimum inhibitory concentration (MIC). How it is done:
as §1, §2, §3

In assay [3] the test system is Porphyromonas gingivalis JCM 8525. The assay is described as follows: MIC by Agar Dilution Test, Pg-1. Particulars: read-out: Minimum inhibitory concentration (MIC). Here is the method: as §1, §2, §3
Assay [4] deals with Corynebacterium xerosis JCM 1324. The assay is described as follows: MIC by Agar Dilution Test, Cx-2. Particulars: read-out: Minimum inhibitory concentration (MIC). Here is the method:
as §1, §2, §3

In assay [5] the test system is Staphyrococcus epidermidis JCM 2414. Description: MIC by Agar Dilution Test, Se-1. Particulars: read-out: Minimum inhibitory concentration (MIC). Here is the method: as §1, §2, §3
The test system of assay [6] is Staphyrococcus epidermidis var. h-6 Takasago isolate. Description: MIC by Agar Dilution Test, Se-2. Particulars: read-out: Minimum inhibitory concentration (MIC). How it is done:
as §1, §2, §3

In assay [7] the test system is Corynebacterium minutissimum IFO 15361. Description: MIC by Agar Dilution Test, Cm-1. To be noted: read-out: Minimum inhibitory concentration (MIC). Here is the method: as §1, §2, §3
The subject of assay [8] is Propionibacterium acnes ATCC 6919. Description: MIC by Agar Dilution Test, Pa-3. To be noted: Cutibacterium acnes, read-out: Minimum inhibitory concentration (MIC). How it is done:
as §1, §2, §3

Assay [9] concerns Actinomyces naeslundii JCM 8350. The assay is described as follows: MIC by Agar Dilution Test, Aa-1. Particulars: read-out: Minimum inhibitory concentration (MIC). Here is the method:
as §1, §2, §3

Assay [10] concerns Staphyrococcus aureus 209P IAM 12082. Description: MIC by Agar Dilution Test, Sa-3. Particulars: read-out: Minimum inhibitory concentration (MIC). How it is done: as §1, §2, §3
For assay [11], the system named is Malassezia furfur IFO 0656. Description: MIC by Agar Dilution Test, Mf-1. Particulars: read-out: Minimum inhibitory concentration (MIC). Here is the method: as §1, §2, §3
Assay [12] concerns Propionibacterium acnes JCM 6473. Description: MIC by Agar Dilution Test, Pa-2. To be noted: Cutibacterium acnes, read-out: Minimum inhibitory concentration (MIC). How it is done: as §1, §2, §3
The test system of assay [13] is Staphyrococcus epidermidis ATCC 12228. Description: MIC by Agar Dilution Test, Se-3. To be noted: read-out: Minimum inhibitory concentration (MIC). How it is done: as §1, §2, §3
Assay [14] relates to Prevotella intermedia JCM 6322. Description: MIC by Agar Dilution Test, Pt-1. To be noted: read-out: Minimum inhibitory concentration (MIC). Here is the method:
as §1, §2, §3

Assay [15] has as its system Actinomyces viscosus JCM 8352. The assay is described as follows: MIC by Agar Dilution Test, Av-1. Particulars: read-out: Minimum inhibitory concentration (MIC). Here is the method:
as §1, §2, §3

The test system of assay [16] is Streptococcus mutans JCM 5175. The assay is described as follows: MIC by Agar Dilution Test, Su-1. Particulars: read-out: Minimum inhibitory concentration (MIC). Here is the method: as §1, §2, §3
Assay [17] has as its system Bacteroides fragilis GM 7000 JCM 5560. Description: MIC by Agar Dilution Test, Bf-1. To be noted: read-out: Minimum inhibitory concentration (MIC). Here is the method:
as §1, §2, §3

For assay [18], the system named is Staphyrococcus aureus ATCC 6538. The assay is described as follows: MIC by Agar Dilution Test, Sa-4. To be noted: read-out: Minimum inhibitory concentration (MIC). Here is the method:
as §1, §2, §3

Molecules are shown by their SMILES. Converted amounts (≈) assume the structure as drawn. Read-outs that look alike come from different tables or passages of the source.

Consider `C=CC(C)(CCC=C(C)C)c1c2occc2c(O)c2ccc(=O)oc12` (stereo not drawn) [9-(1′,5′-dimethyl-1′-vinyl-4′-hexenyl)-4-hydroxy-7H-furo[3,2-γ][1]benzopyran-7-one], for which the MIC in assay [1] (JCM6328, Fn-1, Trypticase Soy agar, 37° C. for 72 hours, anaerobic conditions) came to 1.6 µg/mL (≈ 4.73 µM); in [2] (IFO3134, Bs-1, Mueller-Hinton Medium, 1×10^5 cfu, 37° C. for 18 hours), 3.1 µg/mL (≈ 9.16 µM); in assay [3] (JCM8525, Pg-1, Trypticase Soy agar, 37° C. for 72 hours, anaerobic conditions) it was 1.6 µg/mL (≈ 4.73 µM); in assay [4] (JCM1324, Cx-2, Mueller-Hinton Medium, 1×10^5 cfu, 37° C. for 18 hours), 3.1 µg/mL (≈ 9.16 µM); in [5] (Se-1, Mueller-Hinton Medium, 1×10^5 cfu, 37° C. for 18 hours), 3.1 µg/mL (≈ 9.16 µM); in assay [6] (Se-2, Mueller-Hinton Medium, 1×10^5 cfu, 37° C. for 18 hours) it was 3.1 µg/mL (≈ 9.16 µM). The MIC in assay [7] (IFO15361, Cm-1, Mueller-Hinton Medium, 1×10^5 cfu, 37° C. for 18 hours) was 3.1 µg/mL (≈ 9.16 µM); in [8] (ATCC6919, Pa-3, Trypticase Soy agar, 37° C. for 72 hours, anaerobic conditions), 3.1 µg/mL (≈ 9.16 µM); in assay [9] (JCM8350, Aa-1, Trypticase Soy agar, 37° C. for 72 hours, anaerobic conditions), 3.1 µg/mL (≈ 9.16 µM); in assay [10] (Sa-3, Mueller-Hinton Medium, 1×10^5 cfu, 37° C. for 18 hours), 3.1 µg/mL (≈ 9.16 µM); in assay [11] (Mf-1 (yeast), Sabroud Medium, 5000 cfu, 27° C. for 72 hours) it was 3.1 µg/mL (≈ 9.16 µM); in [12] (JCM6473, Pa-2, Trypticase Soy agar, 37° C. for 72 hours, anaerobic conditions), 3.1 µg/mL (≈ 9.16 µM). Besides, the MIC in assay [13] (Se-3, Mueller-Hinton Medium, 1×10^5 cfu, 37° C. for 18 hours) turned out to be 3.1 µg/mL (≈ 9.16 µM); in [14] (JCM6322, Pt-1, Trypticase Soy agar, 37° C. for 72 hours, anaerobic conditions), 1.6 µg/mL (≈ 4.73 µM); in [15] (JCM8352, Av-1, Trypticase Soy agar, 37° C. for 72 hours, anaerobic conditions), 3.1 µg/mL (≈ 9.16 µM); in assay [16] (JCM5175, Su-1, Trypticase Soy agar, 37° C. for 72 hours, anaerobic conditions), 6.3 µg/mL (≈ 18.6 µM); in [17] (JCM5560, Bf-1, Trypticase Soy agar, 37° C. for 72 hours, anaerobic conditions), 1.6 µg/mL (≈ 4.73 µM); in [18] (Sa-4, Mueller-Hinton Medium, 1×10^5 cfu, 37° C. for 18 hours), 3.1 µg/mL (≈ 9.16 µM).

Regarding `CCCCOC(=O)c1ccc(O)cc1` [Butylparaben, butylparaben], the MIC in [1] (JCM6328, 72 h) stood at 100 µg/mL (≈ 515 µM); in [2] (IFO3134, 18 h) it was 200 µg/mL (≈ 1030 µM); in assay [3] (JCM8525, 72 h) it was 50 µg/mL (≈ 257 µM); in assay [4] (JCM1324, 18 h), 50 µg/mL (≈ 257 µM); in assay [5] (18 h), 200 µg/mL (≈ 1030 µM); in assay [6] (18 h), 200 µg/mL (≈ 1030 µM). Besides, the MIC in [7] (IFO15361, 18 h) was 200 µg/mL (≈ 1030 µM); in [8] (ATCC6919, 72 h), 100 µg/mL (≈ 515 µM); in assay [9] (JCM8350, 72 h) it was 100 µg/mL (≈ 515 µM); in assay [10] (18 h) it was 100 µg/mL (≈ 515 µM); in assay [11] (72 h), 100 µg/mL (≈ 515 µM); in assay [12] (JCM6473, 72 h), 100 µg/mL (≈ 515 µM). For the same compound, the MIC in assay [13] (18 h) is 200 µg/mL (≈ 1030 µM); in assay [14] (JCM6322, 72 h), 100 µg/mL (≈ 515 µM); in assay [15] (JCM8352, 72 h) it was 100 µg/mL (≈ 515 µM); in assay [16] (JCM5175, 72 h), 200 µg/mL (≈ 1030 µM); in assay [17] (JCM5560, 72 h), 50 µg/mL (≈ 257 µM); in assay [18] (18 h), 200 µg/mL (≈ 1030 µM).

`Oc1cc(Cl)ccc1Oc1ccc(Cl)cc1Cl` [Triclosan]: the MIC came out at 0.78 µg/mL (≈ 2.69 µM) in assay [2] (IFO3134, 18 h); 3.1 µg/mL (≈ 10.7 µM) in assay [4] (JCM1324, 18 h); 1.6 µg/mL (≈ 5.53 µM) in assay [5] (18 h); 1.6 µg/mL (≈ 5.53 µM) in [6] (18 h); 1.6 µg/mL (≈ 5.53 µM) in assay [7] (IFO15361, 18 h); 1.6 µg/mL (≈ 5.53 µM) in assay [10] (18 h). The MIC in assay [11] (72 h), in [13] (18 h) and in assay [18] (18 h) was 1.6 µg/mL (≈ 5.53 µM) throughout.

These data come from patent US7473789B2, “9-(1′,5′-dimethyl-1′-vinyl -4′- hexenyl)-4-hydroxy-7H-furo[3,2-γ] [1] benzopyran-7-one as antibacterial agent” (Takasago International Corporation, priority 2004, dated 2009).
